From patent publication US5635527A, “Carboxylic acid compound having condensed ring, salt thereof and pharmaceutical use thereof” (The Green Cross Corporation, priority 1994, dated 1997)

Test system: human platelets
Test: suppressive activity on ADP aggregation of human platelets
Type: cell-based
Settings: platelet rich plasma, ADP 1-5 μM, compound added 2 minutes before ADP, read-out: Suppression of platelet aggregation (IC50)
Protocol: Determination of suppressive activity on ADP aggregation of human platelets
Platelet rich plasma was prepared from the blood taken from healthy humans by centrifugation in the presence of 0.38% sodium citrate, and used for the determination.
Two minutes after the test compounds shown in Table 1 were added to the above-mentioned platelet rich plasma, ADP (adenosine-5'-diphosphate) (1-5 μM) having a concentration at which primary aggregation alone is observed was added, and the suppression of ADP aggregation by the compounds was evaluated. The percent suppression was determined by varying the concentration of the compounds and the concentration of the compound at which the aggregation was suppressed by 50% (IC50) was calculated, which was taken as the activity of the compound.

Compound | IC50 [nM]
N=C(N)c1cnc2oc(C(=O)N[C@H]3CC[C@H](OCC(=O)O)CC3)cc2c1 [Compound 255, trans-[4-(5-Amidinofuro[2,3-b]pyridine-2-carbonylamino)-cyclohexyloxy]acetic acid] | 20
N=C(N)c1cnc2oc(C(=O)N[C@H]3CC[C@H](CCC(=O)O)CC3)cc2c1 [Compound 261, trans-3-[4-(5-Amidinofuro[2,3-b]pyridine-2-carbonylamino)cyclohexyl]propionic acid] | 10
